We go through 1 molecule from paper PMC13252604, “First Generation Proteolysis Targeting Chimeras (PROTACs) for the Treatment of Progeria” (Advanced Science, 2026).

The target of this assay is T1, progerin (Mus musculus, UniProt P48678, DEL608-657).
T1 construct: endogenous in cells; host or cells: immortalized (SV40-LT) fibroblasts from Lmna G609G/G609G mice
T1 sequence (P48678 with tags, fused parts or gaps DEL608-657 limits assumed): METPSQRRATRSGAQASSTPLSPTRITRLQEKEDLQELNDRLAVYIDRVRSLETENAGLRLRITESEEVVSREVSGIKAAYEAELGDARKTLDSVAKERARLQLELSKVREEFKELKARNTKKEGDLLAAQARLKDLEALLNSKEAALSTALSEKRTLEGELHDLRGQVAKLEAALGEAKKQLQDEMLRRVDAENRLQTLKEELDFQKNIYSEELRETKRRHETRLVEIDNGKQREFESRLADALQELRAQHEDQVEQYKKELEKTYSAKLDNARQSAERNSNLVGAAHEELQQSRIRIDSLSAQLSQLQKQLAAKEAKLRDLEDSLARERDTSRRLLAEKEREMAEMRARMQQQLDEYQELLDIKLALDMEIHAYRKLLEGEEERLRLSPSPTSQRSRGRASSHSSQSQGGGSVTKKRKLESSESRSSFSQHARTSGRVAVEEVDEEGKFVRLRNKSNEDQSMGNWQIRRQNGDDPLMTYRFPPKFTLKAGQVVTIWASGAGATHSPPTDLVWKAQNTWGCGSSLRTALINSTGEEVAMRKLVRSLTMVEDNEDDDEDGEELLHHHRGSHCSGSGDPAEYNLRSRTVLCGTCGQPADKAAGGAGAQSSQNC
The assay can be described thus: Cellular thermal shift assay. The class given is binding. As for the experimental part:
Vehicle .LM123L T-!=>(%C" V,!=> […]
50- !!!!!C#' -4TT8VLamin C -4T:T; (%$$-4-:?5T '()*+
!!!!!E#)*+,- ,V4:-β-Actin ,?4?V ,848; D(%
37- !!!!!*+,- 84;66L<-,V V4-;VL<-,? ?4T-?L<-,8 ,-)*+ […]
Supporting Figure S2. Ternary complex formation, progerin engagement and global selectivity of compound 2. […]
(C) Thermal denaturation curves of progerin in the presence of vehicle (black) or compound 2 at 10 µM (red, DTm=0.7±0.1 °C) or 25 µM (blue, […]
of compound 2 (IC50=7±1 µM). Curves are generated and fitted using sigmoidal dose-response non-linear regression curve fit in GraphPad Prism. Symbols and associated error bars (when not enclosed by the symbol) represent average±SD from two independent experiments carried out in duplicate. […]
(also on this page, place not known: >4000; Cpd2Cpd2 #)"$"C"#"*")*$*C ,V4:- 89:/1239 .0,;902<=:939:>=R?T !"#$#" (%$$ (%C" #)"$"C"#"*")*$*C -45665 -4TT8V ,V4:- 84;66L<-,V T-!=> ,?4?V V4-;VL<-,? -4-:?5T ,848; ?4T-?L<-,8 89:/1239 .0,;902<=:939:>=R?T FFFFFSB#T89: FFFFFSB#T89: FFFFFa+#-++GFB2FC-++CB$ FFFFFbFGF4D-+C FFFFF!4$FB2F!F4D-+G FFFFFiFB2FMF3DE4+G FFFFFiFkF3DE4+GFDLDEdl+C I9em:m rrr 9 :eosmX :e:snst o o Ise::::: I9e::::: :etpoooomX :esnnsmqmX :enst9mmqo :estm9XpoX Lamin β-Actin Progerin Relative progerin levelsin thesoluble fraction Relative levelsof denaturedprogerin [Cpd2, Relative progerin signal intensityvs IgG Cpd2 [Cpd2]=10 [Cpd2]=25 AbundanceRatio Veh Cpd2 -Log10 (p value)) […]
buffer containing 2.5% β-mercaptoethanol, and heated at 95 °C for 5 min prior to magnetic separation and loading of supernatants onto SDS -PAGE gels. Input lysates (~30 µg) were prepared in parallel as Western blot controls.
14. Cellular thermal shift assay.
Progeroid mouse fibroblasts (LmnaG609G/G609G) were seeded (2x10^6 cells) in 100 mm dishes 24 h before the experiment. Next day, cells were first washed with PBS and then incubated with the proteasome inhibitor (S)-MG132 (20 µM) for 2 h at 37 °C and 5%
CO2. Then, the cells were incubated with compound 2 at the corresponding concentration or with vehicle for 60 min at 37 °C and 5% CO2. Cells were then washed with PBS, detached by treatment with trypsin, and collected by centrifugation at 250g and 25 °C for 5 min, washed with PBS and resuspended in PBS in 0.2 mL microtubes. Then, homogenates or cells were transferred to PCR tubes and heat-shocked for 3 min at the appropriate temperature (37 to 61 °C) followed by rapid cooling to 25 °C using a SensoQuest LabCycler Thermocycler (Progen Scientific Ltd). Igepal CA-630 was then added to the samples (final concentration of 1 % v/v), and the samples were thoroughly mixed and denatured by three cycles of freezing/thawing (immersion in liquid nitrogen followed by fast thawing). […]

As for `CC1(C)Oc2cc3oc(=O)ccc3cc2C[C@@H]1OC(=O)CCCCCNc1cccc2c1C(=O)N(C1CCC(=O)NC1=O)C2=O` (stereo partly shown) [compound 2], for the setting “CETSA, isothermal at 53 °C, Lmna^G609G/G609G fibroblasts, read-out: binding affinity by isothermal dose‐response fingerprint (IC50)”, the IC50 was found to be 7 ± 1 µM. Also, the “direct binding to progerin by cellular thermal shift assays” value (Lmna^G609G/G609G fibroblasts) is “direct binding between compound 2 and progerin”. In addition, the ΔTm at 10 µM (compound at 10 µM, read-out: DTm of progerin (thermal denaturation curve)) came out at 0.7 ± 0.1 °C. In addition, under “compound at 25 µM, read-out: DTm of progerin (thermal denaturation curve)”, the ΔTm at 25 µM was determined as 2 ± 0.3 °C.
